The target in assay [1] is T1, Acetylcholinesterase (Homo sapiens, UniProt P22303). Description: Inhibition of acetylcholinesterase (unknown origin) at 0.01 to 100 uM using acetylthiocholine as substrate preincubated for 30 mins followed by substrate addition and measured after 2 mins by Ellman's method relative to control. For orientation: Ellman's reagent forms a yellow product with free thiols.

Assay [2] addresses T1, Acetylcholinesterase. The assay can be described thus: Inhibition of acetylcholinesterase (unknown origin) using acetylthiocholine as substrate preincubated for 30 mins followed by substrate addition and measured after 2 mins by Ellman's method.

Some results are limits rather than exact numbers.

Consider eight compounds from ChEMBL document CHEMBL4616644, “Furofuranone Lignans from Leucophyllum ambiguum” (J Nat Prod, 2020).

T1 sequence (P22303 whole entry): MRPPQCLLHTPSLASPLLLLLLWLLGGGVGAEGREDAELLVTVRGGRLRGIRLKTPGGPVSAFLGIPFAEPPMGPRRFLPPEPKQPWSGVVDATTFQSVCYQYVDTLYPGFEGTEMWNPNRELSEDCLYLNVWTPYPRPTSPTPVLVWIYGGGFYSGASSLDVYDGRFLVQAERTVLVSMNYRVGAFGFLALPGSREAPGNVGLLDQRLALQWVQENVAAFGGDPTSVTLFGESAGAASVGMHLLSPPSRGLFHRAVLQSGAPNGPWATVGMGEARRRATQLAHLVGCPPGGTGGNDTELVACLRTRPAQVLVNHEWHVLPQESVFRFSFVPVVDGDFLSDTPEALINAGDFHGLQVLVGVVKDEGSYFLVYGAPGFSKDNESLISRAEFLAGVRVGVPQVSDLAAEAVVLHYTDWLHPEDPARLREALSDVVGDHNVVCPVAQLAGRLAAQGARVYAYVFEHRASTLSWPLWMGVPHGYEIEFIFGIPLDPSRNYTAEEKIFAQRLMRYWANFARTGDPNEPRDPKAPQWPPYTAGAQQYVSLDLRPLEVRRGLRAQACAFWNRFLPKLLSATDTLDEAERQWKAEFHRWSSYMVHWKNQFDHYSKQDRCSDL

As to `COc1ccc([C@H]2OC[C@H]3[C@@H]2C(=O)O[C@@H]3c2ccc3c(c2)OCO3)cc1OC`, the inhibition (in general, how much of the control response was suppressed) against Acetylcholinesterase [1] is more than 70%. Besides, inhibition on Acetylcholinesterase [2] was half-maximal at 2.23 µM (IC50).

Consider `COc1cc([C@H]2OC[C@H]3[C@@H]2CO[C@@H]3c2cc(OC)c(OC)c(OC)c2)cc(OC)c1OC`, for which the inhibition against Acetylcholinesterase [1] stood at 65%. Further, on Acetylcholinesterase [2], the IC50 – broadly, the concentration needed to halve the response being measured – was found to be 0.616 µM.

Compound `COc1cc([C@H]2OC[C@H]3[C@@H]2CO[C@@H]3c2cc(OC)c3c(c2)OCO3)cc(OC)c1OC` gave an inhibition against Acetylcholinesterase [1] of 81%. On Acetylcholinesterase [2], this compound had an IC50 of 0.46 µM.

Consider `COc1ccc([C@H](O)[C@H](N)C(=O)O)cc1OC`, for which the inhibition against Acetylcholinesterase [1] is more than 70%. This compound also gave an IC50 against Acetylcholinesterase [2] of 0.001 µM.

Regarding `COc1ccc([C@H]2O[C@@H](O)[C@H]3[C@@H]2C(=O)O[C@@H]3c2ccc(OC)c(OC)c2)cc1OC`, the inhibition against Acetylcholinesterase [1] was more than 70%. On Acetylcholinesterase [2], the concentration for half-maximal inhibition (IC50) is 0.028 µM.

As to `COc1ccc([C@H]2O[C@@H](O)[C@H]3[C@@H]2C(=O)O[C@@H]3c2cc(OC)c3c(c2)OCO3)cc1OC`, the inhibition at Acetylcholinesterase [1] was more than 70%. This compound yielded an IC50 against Acetylcholinesterase [2] of 0.003 µM.

In turn, `COc1ccc([C@H]2OC(=O)[C@H]3[C@@H]2C(=O)O[C@@H]3c2ccc3c(c2)OCO3)cc1OC` came in with an inhibition against Acetylcholinesterase [1] of more than 90%. Also, the midpoint of inhibition against Acetylcholinesterase [2], the IC50, lay at 0.158 µM.

Turning to `COc1ccc([C@H]2OC[C@H]3[C@@H]2CO[C@@H]3c2cc(OC)c(OC)c(OC)c2)cc1OC`, the inhibition at Acetylcholinesterase [1] was more than 90%. At Acetylcholinesterase [2], the IC50 was 0.903 µM.
